Laboratory results taken from patent US20050112573A1, “Method of detecting toxic substance” (priority 2001, published 2005).

System: yeast genes (level of expressed mRNA)
Experiment: DNA chip analysis of expressed mRNA of yeast genes after 2 h culture with a toxic chemical substance
Format: cell-based, Saccharomyces cerevisiae S288C
Conditions: for The level of expressed mRNA in the presence of chemical substance/ (ratio to absence of chemical substance): stress protein genes, DNA chip
Description: Yeast (Saccharomyces cerevtisiae S288C (α SUC2mal mel gap2 CUP1)) were cultured at 25° C. on YPD medium (yeast extract 1%, polypepton 2%, glucose 2%). One of toxic chemical substances was added to the cell at logarithmic growth phase, and the cell was further cultured for two hours. Cell was cultured without any chemical substance in the same condition, and was used as control. Concentrations of the chemical substances were defined to inhibit the growth of the yeast but not lead to death.
After the completion of cultivation, the culture was centrifuged to collect the cells. To the cells, sodium acetate buffer (50 mM sodium acetate, 10 mM EDTA, 1% SDS) was added, and the mixture was shaken at 65° C. for five minutes, followed by returning to room temperature, and obtaining the supernatant, which procedure was repeated two times. To the supernatant, ½ amount of a solution of phenol/chloroform was added, and the mixture was centrifuged to give a supernatant, which was added with an equal amount of chloroform, and the mixture was centrifuged to give a supernatant. To the supernatant, an equal amount of isopropanol containing 0.3 M sodium acetate was added, and the mixture was allowed to stand at room temperature for 30 minutes, after which the mixture was centrifuged to give a sediment of the whole RNAs. Seventy % ethanol was added to the sediment, and the mixture was again centrifuged to give a sediment, which was then dried and dissolved in water. mRNA was isolated from the whole RNAs as followings. In view of the fact that a poly A chain is attached to the 3′ terminus of mRNA, a polynucleotide having a poly T structure which was immobilized on the surface of latex beads was used to trap the mRNA, and then the mRNA was washed and eluted with spine column (Oligotex-dT30<Super>mRNA Purification Kit, Takara). Reverse transcription of the mRNA was conducted with a reverse transcriptase (Super Script II Reverse Transcriptase; catalogue No. 18064-014, GibcoBRL) using fluorescence-labeled nucleotides to give cDNAs that were introduced with Cy3-dUTP or Cy5-dUTP during the reverse transcription.
The labeled cDNAs were dissolved in TE buffer (10 mM Tris-HCl/1 mM EDTA, pH8.0), and the solution was dropped on the DNA chip containing the whole genes of yeast (DNA Chip Research Inc. Japan) so that the cDNAs were hybridized on the DNA chip at 65° C. for over 12 hours. The fluoresces intensity of the DNA chip was read with a scanner, and the ratio relative to the fluorescence intensity resulting from the absence of chemical substance was estimated as the following, which is shown in Tables 1 to 9: [formula]
In the Tables, “Intensity” indicated in the rightmost column is a value of the level of expressed mRNA of each gene in control cells as divided by the average level of the expressions of the whole genes.

## COc1cc(CNC(=O)CCCCC=CC(C)C)ccc1O [(12), 8-methyl-N-vanillyl-6-nonenamide]
Yeast gene YDR073W, ratio of DNA chip fluorescence intensity to that without chemical substance
  The level of expressed mRNA in the presence of chemical substance/ (in its absence), gene YDR073W: 0.8
Yeast gene YDR079W, energy system protein genes, 2 h culture with the chemical, ratio to control without chemical
  The level of expressed mRNA in the presence of chemical substance/ in its absence, gene YDR079W: 1.1
Yeast gene YDR079W, mitochondria-located protein genes, 2 h culture with chemical
  The level of expressed mRNA in the presence of chemical substance/ (ratio to absence), gene YDR079W: 1.1
Yeast gene YDR084C
  The level of expressed mRNA in the presence of chemical substance/The level of expressed mRNA in the absence of chemical substance: 0.7
Yeast gene YDR085C
  The level of expressed mRNA in the presence of chemical substance/The level of expressed mRNA in the absence of chemical substance: 1.6
Yeast gene YDR104C
  The level of expressed mRNA in the presence of chemical substance/The level of expressed mRNA in the absence of chemical substance: 1.1
Yeast gene YDR115W
  The level of expressed mRNA in the presence of chemical substance/The level of expressed mRNA in the absence of chemical substance: 0.9
Yeast gene YDR259C
  The level of expressed mRNA in the presence of chemical substance/The level of expressed mRNA in the absence of chemical substance: 1.0
Yeast gene YDR297W, ratio of DNA chip fluorescence intensity to that without chemical substance
  The level of expressed mRNA in the presence of chemical substance/ (in its absence), gene YDR297W: 1.0
Yeast gene YDR315C
  The level of expressed mRNA in the presence of chemical substance/The level of expressed mRNA in the absence of chemical substance: 0.6
Yeast gene YDR358W
  The level of expressed mRNA in the presence of chemical substance/The level of expressed mRNA in the absence of chemical substance: 1.1
Yeast gene YDR377W, mitochondria-located protein genes, 2 h culture with chemical
  The level of expressed mRNA in the presence of chemical substance/ (ratio to absence), gene YDR377W: 0.9
Yeast gene YDR387C, ratio of DNA chip fluorescence intensity to that without chemical substance
  The level of expressed mRNA in the presence of chemical substance/ (in its absence), gene YDR387C: 0.9
Yeast gene YDR388W
  The level of expressed mRNA in the presence of chemical substance/The level of expressed mRNA in the absence of chemical substance: 0.8
Yeast gene YDR406W
  The level of expressed mRNA in the presence of chemical substance/The level of expressed mRNA in the absence of chemical substance: 3.9
Yeast gene YDR432W
  The level of expressed mRNA in the presence of chemical substance/The level of expressed mRNA in the absence of chemical substance: 0.7
Yeast gene YDR481C
  The level of expressed mRNA in the presence of chemical substance/The level of expressed mRNA in the absence of chemical substance: 0.9
Yeast gene YDR510W
  The level of expressed mRNA in the presence of chemical substance/The level of expressed mRNA in the absence of chemical substance: 1.4
Yeast gene YEL039C
  The level of expressed mRNA in the presence of chemical substance/ (ratio to absence of chemical substance): 0.6
Yeast gene YEL042W
  The level of expressed mRNA in the presence of chemical substance/The level of expressed mRNA in the absence of chemical substance: 1.0
Yeast gene YEL066W
  The level of expressed mRNA in the presence of chemical substance/The level of expressed mRNA in the absence of chemical substance: 0.8
Yeast gene YER015W, ratio of DNA chip fluorescence intensity to that without chemical substance
  The level of expressed mRNA in the presence of chemical substance/ (in its absence), gene YER015W: 0.9
Yeast gene YER039C
  The level of expressed mRNA in the presence of chemical substance/The level of expressed mRNA in the absence of chemical substance: 0.9
Yeast gene YER057C
  The level of expressed mRNA in the presence of chemical substance/ (ratio to absence of chemical substance): 1.5
Yeast gene YER107C
  The level of expressed mRNA in the presence of chemical substance/The level of expressed mRNA in the absence of chemical substance: 0.7
Yeast gene YER130C
  The level of expressed mRNA in the presence of chemical substance/The level of expressed mRNA in the absence of chemical substance: 1.0
Yeast gene YFL028C
  The level of expressed mRNA in the presence of chemical substance/The level of expressed mRNA in the absence of chemical substance: 1.1
Yeast gene YFL043C
  The level of expressed mRNA in the presence of chemical substance/The level of expressed mRNA in the absence of chemical substance: 0.9
Yeast gene YFR015C, two hours culture
  The level of expressed mRNA in the presence of chemical substance/The level of expressed mRNA in the absence of chemical substance: 0.4
Yeast gene YFR024C
  The level of expressed mRNA in the presence of chemical substance/The level of expressed mRNA in the absence of chemical substance: 1.5
Yeast gene YGL035C, ratio of DNA chip fluorescence intensity to that without chemical substance
  The level of expressed mRNA in the presence of chemical substance/ (in its absence), gene YGL035C: 0.9
Yeast gene YGL115W, ratio of DNA chip fluorescence intensity to that without chemical substance
  The level of expressed mRNA in the presence of chemical substance/ (in its absence), gene YGL115W: 0.9
Yeast gene YGL115W
  The level of expressed mRNA in the presence of chemical substance/ (ratio to absence of chemical substance): 0.9
Yeast gene YGL158W
  The level of expressed mRNA in the presence of chemical substance/The level of expressed mRNA in the absence of chemical substance: 1.3
Yeast gene YGL187C, mitochondria-located protein genes, 2 h culture with chemical
  The level of expressed mRNA in the presence of chemical substance/ (ratio to absence), gene YGL187C: 0.8
Yeast gene YGL205W, ratio of DNA chip fluorescence intensity to that without chemical substance
  The level of expressed mRNA in the presence of chemical substance/ (in its absence), gene YGL205W: 1.1
Yeast gene YGL229C
  The level of expressed mRNA in the presence of chemical substance/The level of expressed mRNA in the absence of chemical substance: 1.1
Yeast gene YGR008C, two hours culture
  The level of expressed mRNA in the presence of chemical substance/The level of expressed mRNA in the absence of chemical substance: 2.0
Yeast gene YGR062C, energy system protein genes, 2 h culture with the chemical, ratio to control without chemical
  The level of expressed mRNA in the presence of chemical substance/ in its absence, gene YGR062C: 1.0
Yeast gene YGR062C, mitochondria-located protein genes, 2 h culture with chemical
  The level of expressed mRNA in the presence of chemical substance/ (ratio to absence), gene YGR062C: 1.0
Yeast gene YGR096W, ratio of DNA chip fluorescence intensity to that without chemical substance
  The level of expressed mRNA in the presence of chemical substance/ (in its absence), gene YGR096W: 0.8
Yeast gene YGR136W
  The level of expressed mRNA in the presence of chemical substance/The level of expressed mRNA in the absence of chemical substance: 1.2
Yeast gene YGR189C
  The level of expressed mRNA in the presence of chemical substance/The level of expressed mRNA in the absence of chemical substance: 1.3
Yeast gene YGR213C
  The level of expressed mRNA in the presence of chemical substance/The level of expressed mRNA in the absence of chemical substance: 10.6
Yeast gene YGR257C
  The level of expressed mRNA in the presence of chemical substance/The level of expressed mRNA in the absence of chemical substance: 0.9
Yeast gene YGR281W
  The level of expressed mRNA in the presence of chemical substance/The level of expressed mRNA in the absence of chemical substance: 2.4
Yeast gene YGR287C, ratio of DNA chip fluorescence intensity to that without chemical substance
  The level of expressed mRNA in the presence of chemical substance/ (in its absence), gene YGR287C: 1.1
Yeast gene YGR288W, ratio of DNA chip fluorescence intensity to that without chemical substance
  The level of expressed mRNA in the presence of chemical substance/ (in its absence), gene YGR288W: 0.9
Yeast gene YHL028W
  The level of expressed mRNA in the presence of chemical substance/ (ratio to absence of chemical substance): 1.5
Yeast gene YHL046C
  The level of expressed mRNA in the presence of chemical substance/ (ratio to absence of chemical substance): 1.1
Yeast gene YHL047C
  The level of expressed mRNA in the presence of chemical substance/The level of expressed mRNA in the absence of chemical substance: 2.6
Yeast gene YHR004C
  The level of expressed mRNA in the presence of chemical substance/The level of expressed mRNA in the absence of chemical substance: 0.9
Yeast gene YHR071W
  The level of expressed mRNA in the presence of chemical substance/The level of expressed mRNA in the absence of chemical substance: 0.8
Yeast gene YHR139C
  The level of expressed mRNA in the presence of chemical substance/The level of expressed mRNA in the absence of chemical substance: 1.6
Yeast gene YHR142W
  The level of expressed mRNA in the presence of chemical substance/The level of expressed mRNA in the absence of chemical substance: 1.3
Yeast gene YHR210C, ratio of DNA chip fluorescence intensity to that without chemical substance
  The level of expressed mRNA in the presence of chemical substance/ (in its absence), gene YHR210C: 0.5
Yeast gene YIL006W, ratio of DNA chip fluorescence intensity to that without chemical substance
  The level of expressed mRNA in the presence of chemical substance/ (in its absence), gene YIL006W: 0.9
Yeast gene YIL011W
  The level of expressed mRNA in the presence of chemical substance/ (ratio to absence of chemical substance): 0.6
